This note sets out measurements from PubChem BioAssay (NCI).

Among the test systems are ACHN renal; MALME-3M melanoma; SK-OV-3 ovarian; MDA-MB-435; A549 NSCLC; SW-620 colon; SK-MEL-2 melanoma; OVCAR-5 ovarian; SN12C renal; HT29 colon.
Holding throughout (test): NCI-60 cell line screen, 48 h

“And” between values parts separate entries of the source, which are not always exact repeats. Equal values may be shown once.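 The compound was tested at five concentrations on cells cultured in 96-well plates, with a 48-hour exposure period. At the TGI there is no net growth.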

In the case of `O=c1oc2ccccc2cc1/C=N/N1C(=S)N(c2ccccc2)C(=Nc2ccccc2)C1=Nc1ccccc1`, the TGI with ACHN renal, in the assay with MALME-3M melanoma, with SK-OV-3 ovarian, in the assay on MDA-MB-435, in the assay with A549 NSCLC and with SW-620 colon was greater than 100 µM throughout. For the same molecule, the TGI in the assay with SK-MEL-2 melanoma, in the assay with OVCAR-5 ovarian and in the assay with SN12C renal was greater than 100 µM throughout.
For `CCCN(C(=O)c1c(Cl)nnc(Cl)c1C(=O)c1cc(Cl)nnc1Cl)c1cc(Cl)nnc1Cl`, the TGI is 25.5 µM in the assay on ACHN renal; greater than 100 µM in the assay on SK-OV-3 ovarian; 37 µM with MDA-MB-435; greater than 100 µM in the assay with A549 NSCLC; 25.5 µM with SW-620 colon; 33.3 µM in the assay on SK-MEL-2 melanoma. Also, the TGI is 43.4 µM in the assay with HT29 colon, 41.2 µM in the assay with OVCAR-5 ovarian and 26.1 µM in the assay on SN12C renal.
On to `Cc1c(/C=N/NC(=S)Nc2ccccc2Cl)c(=O)n(-c2ccccc2)n1C`, for which the TGI with MALME-3M melanoma was 79.9 µM; in the assay with SK-OV-3 ovarian, 82.5 µM; in the assay on MDA-MB-435, greater than 100 µM; in the assay with A549 NSCLC, greater than 100 µM; in the assay with SW-620 colon, greater than 100 µM; in the assay with SK-MEL-2 melanoma, greater than 100 µM. In addition, the TGI in the assay on HT29 colon, in the assay on OVCAR-5 ovarian and in the assay with SN12C renal was greater than 100 µM throughout.
For the molecule `C/C(=N\Nc1nc2ccccc2s1)c1ncccn1`, the TGI in the assay with ACHN renal was 0.177 µM; in the assay with MALME-3M melanoma, greater than 100 µM; with MDA-MB-435 it was greater than 100 µM; in the assay with A549 NSCLC, greater than 20 µM; in the assay with SW-620 colon, greater than 69.2 µM; with SK-MEL-2 melanoma, 4.46 µM. Moreover, the figures for the TGI in the assay on OVCAR-5 ovarian and in the assay with SN12C renal were 22.7 µM and 25.2 µM, respectively.
For the molecule `CCOC(=O)CSc1nc(-c2ccccc2)c(C#N)c(=O)[nH]1`, the TGI with ACHN renal, in the assay with SK-OV-3 ovarian, in the assay with MDA-MB-435, in the assay with A549 NSCLC, with SW-620 colon and in the assay with SK-MEL-2 melanoma was greater than 100 µM each time. The TGI with HT29 colon, in the assay on OVCAR-5 ovarian and with SN12C renal was greater than 100 µM in each case.
For `N#CC(C#N)=Cc1ccc2c(c1)OC(Cl)O2` (configuration not stated), the TGI in the assay with ACHN renal is 36 µM; in the assay on MALME-3M melanoma it was 34.8 µM; in the assay with SK-OV-3 ovarian, 61.5 µM; with MDA-MB-435, 35.7 µM; in the assay with A549 NSCLC it was greater than 100 µM; in the assay with SK-MEL-2 melanoma, 37.6 µM. In addition, the TGI in the assay on HT29 colon was determined as 44.9 µM; with OVCAR-5 ovarian, 37.1 µM; in the assay with SN12C renal, 51.2 µM.
With `O=C(c1ccccc1)c1ccc(COc2ccc(C(c3c(O)c4ccccc4oc3=O)c3c(O)c4ccccc4oc3=O)cc2)cc1`, the TGI in the assay with ACHN renal was determined as 38.1 µM; in the assay with SK-OV-3 ovarian it was 35.4 µM; in the assay on MDA-MB-435 it was 46.8 µM; with A549 NSCLC it was 65.2 µM; in the assay on SW-620 colon, 80.4 µM; in the assay with SK-MEL-2 melanoma it was 34.9 µM. Also, the TGI in the assay on HT29 colon is 34.9 µM; with OVCAR-5 ovarian, 38.9 µM; in the assay with SN12C renal, greater than 100 µM.
Take `CC1(C)CC(=O)c2c(nc3ccc4ccccc4c3c2-c2ccc(NC(=O)CCCC(=O)Nc3ccc(-c4c5c(nc6ccc7ccccc7c46)CC(C)(C)CC5=O)cc3)cc2)C1`: the TGI in the assay on ACHN renal, with SK-OV-3 ovarian, in the assay on MDA-MB-435, in the assay on A549 NSCLC, with SW-620 colon and in the assay with SK-MEL-2 melanoma was greater than 100 µM each time. Further, the TGI in the assay on HT29 colon, with OVCAR-5 ovarian and with SN12C renal was greater than 100 µM throughout.
For `CCOC(=O)/C(C(=S)Nc1ccccc1)=C(/N)N1CCCC1`, the TGI in the assay with ACHN renal, in the assay with MALME-3M melanoma, in the assay on MDA-MB-435, in the assay with A549 NSCLC, with SW-620 colon and with SK-MEL-2 melanoma was greater than 100 µM in each case. The TGI with HT29 colon, in the assay with OVCAR-5 ovarian and with SN12C renal was greater than 100 µM throughout.
Consider `COc1c2c(cc3oc(C)cc(=O)c13)OC(=N)C(C(N)=O)C2CC(=O)c1ccc(N)cc1` (configuration not stated), for which the TGI in the assay on ACHN renal, in the assay on MALME-3M melanoma, in the assay with MDA-MB-435, in the assay with A549 NSCLC, in the assay with SW-620 colon and in the assay with SK-MEL-2 melanoma was greater than 100 µM each time. The TGI with OVCAR-5 ovarian and in the assay on SN12C renal was greater than 100 µM each time.
For `COc1ccc(NS(=O)CCCc2ccccc2)cc1` (configuration not stated), the TGI in the assay with ACHN renal, with MALME-3M melanoma, with MDA-MB-435, in the assay on A549 NSCLC, in the assay on SW-620 colon and with SK-MEL-2 melanoma was greater than 100 µM each time. In addition, the TGI in the assay with HT29 colon, in the assay with OVCAR-5 ovarian and with SN12C renal was greater than 100 µM throughout.
Take `CN(C)c1ccc(N=Nc2ccc3nc[nH]c3c2)cc1`: the TGI in the assay with ACHN renal was 37.6 µM; in the assay with MALME-3M melanoma it was 53 µM; in the assay with MDA-MB-435 it was 47.7 µM; with A549 NSCLC, greater than 100 µM; with SW-620 colon, greater than 100 µM; in the assay with SK-MEL-2 melanoma, greater than 100 µM. Moreover, the TGI in the assay with HT29 colon is 37 µM; in the assay with OVCAR-5 ovarian, 70.4 µM; in the assay with SN12C renal, 71 µM.
In the case of `COc1cc2cc(C(=O)N3CC(CCl)c4ccc(O)cc43)[nH]c2c(OC)c1OC` (configuration not stated), the TGI in the assay with ACHN renal stood at 0.000211 µM; in the assay with MALME-3M melanoma, 0.0178 µM; with MDA-MB-435 it was 0.0158 µM; in the assay on A549 NSCLC it was 1.25 µM; in the assay on SW-620 colon, 0.137 µM; in the assay with SK-MEL-2 melanoma, 0.00468 µM. The TGI was 0.0107 µM in the assay with HT29 colon; 0.765 µM in the assay on OVCAR-5 ovarian; 0.148 µM and 0.104 µM in the assay with SN12C renal.
Take `COc1cc2c(c(OC)c1OC)C(=O)[C@H](O)[C@H]2NC(N)=O`: the TGI in the assay on ACHN renal, in the assay on MALME-3M melanoma, in the assay with MDA-MB-435, in the assay with A549 NSCLC, in the assay on SW-620 colon and in the assay with HT29 colon was greater than 100 µM each time. Further, the TGI in the assay on OVCAR-5 ovarian and in the assay on SN12C renal was greater than 100 µM throughout.
On to `CC1CCCc2c(C#N)c(N)nc(-c3ccc(Cl)cc3)c21` (configuration not stated), for which the TGI was 38.4 µM with ACHN renal; 85.1 µM with MALME-3M melanoma; greater than 100 µM in the assay on SK-OV-3 ovarian; greater than 100 µM in the assay on MDA-MB-435; greater than 100 µM in the assay with SW-620 colon; 44.4 µM in the assay with SK-MEL-2 melanoma. Besides, the TGI with HT29 colon is 44.4 µM; in the assay with OVCAR-5 ovarian, 63.3 µM; in the assay on SN12C renal, 38.2 µM.
